# Key:
# [1] = Hydroxyl radical scavenging (competition with DMSO); type: biochemical; conditions: tested at 100 μM
# Procedure: Hydroxyl Radicals Scavenging Activity.^32 The hydroxyl radicals were produced by the Fe^3+/ascorbic acid system. EDTA (0.1 mM), Fe^3+ (167 μM), DMSO (33 mM) in phosphate buffer (50 mM, pH 7.4), the tested compounds (0.1 mM) and ascorbic acid (10 mM) were mixed in test tubes. The solutions were incubated at 37° C. for 30 min. The reaction was stopped by trichloroacetic acid (17% w/v) (Table 1) and the % scavenging activity of the tested compounds for hydroxyl radicals was given.
# 3.2. Competition of QNs with DMSO for hydroxyl radicals. Among the ROS, the hydroxyl (·OH) free radical is possibly the most toxic, as it easily reacts with biological important molecules such as DNA, lipids or carbohydrates. Polyunsaturated fatty acids are found in high concentrations in the CNS, and are particularly vulnerable to free radicals attack. Thus, we tried to test the ability of our compound to scavenge hydroxyl radicals. […] Antioxidants with lipophilic character are needed to act as radical scavengers or as chain-breaking antioxidants in biological membranes.
# [2] = ABTS radical cation decolorization assay; type: biochemical; conditions: tested at 100 μM
# Procedure: ABTS^⋅+-decolorization assay in ethanolic solution for antioxidant activity.^32,35 ABTS is dissolved in water to a 2 mM concentration. ABTS radical cation (ABTS^⋅+) is produced by reacting the ABTS stock solution with 0.17 mM potassium persulfate in phosphate buffer (pH 7.4, 20 mM) and allowing the mixture to stand in the dark at room temperature for 12-16 h before use. For steady state measurements, […] ABTS^⋅+ was used. For the present study, the […] ABTS^⋅ solution (200 μL) was diluted with ethanol (790 μL) to an absorbance of 0.70 at 734 nm, equilibrated at room temperature, mixed with 10 μL of the tested compounds (stock solutions 10 mM) and the absorbance reading was taken at room temperature 1 min after the initial mixing. Trolox was used as a standard.
# 3.4. ABTS^⋅+ antioxidant activity of QNs. The ABTS^⋅+ radical cation, derived from the oxidation of 2,2′-azino-bis(3-ethylbenzothiazoline-6-sulphonic acid) (ABTS) by potassium persulfate, is a green-blue stable chromophore, which can be analyzed in the course of a decolorization assay. The addition of electron-donor antioxidants leads to ABTS^⋅+ reduction. The chemistry taking place involves the direct generation of the ABTS^⋅+ with no involvement of an intermediary radical. […] Again, and as shown, QN23 presented limited activity beside with 19, although the others nitrones had no activity (Table 3).
# [3] = tested on: primary neuronal cultures from rat cerebral cortex; assay: Neuroprotection (MTT cell viability) in primary neuronal cultures exposed to oxygen-glucose deprivation (OGD); type: cell-based; conditions: 24 h recovery after 4 h OGD; for neuronal viability compared with R24 h (in words): concentrations as stated or in FIG. 4
# Procedure: Primary neuronal cultures. Primary neuronal cultures from rat cerebral cortex were prepared as previously described.^54 All procedures associated with animal experiments were approved by the Ethics Committee of the Hospital Ramón y Cajal, Madrid (Spain). Cell suspensions from cerebral cortex were prepared from 16- to 17-day-old Sprague-Dawley rat embryos. Living cells in cell suspension were counted by trypan blue exclusion method. Cells were seeded on plastic multidishes precoated with 0.05 mg/mL poly-D-lysine at a density of 2.5×10^5 cells/cm^2 and were kept at 37° C. in a 6.5% CO2 atmosphere in high glucose Dulbecco's medium supplemented with 15% heat-inactivated (56° C. for 30 min) foetal calf serum. After 24 h, cultured cells were […] to induce experimental ischemia.^23 Cultured cells were washed and placed in glucose-free Dulbecco's medium (bubbled with 95% N2/5% CO2 for 30 min), and maintained in a humidified hypoxia chamber equipped with an oxygen and carbon dioxide control unit (Biospherix) at 6.5% CO2 and <0.1% O2 in N2 at 37° C. Cells were exposed to OGD for a period of 4 h (OGD 4 h). At the end of the OGD period, culture medium was replaced with oxygenated serum-free medium, and cells were placed and maintained in the normoxic incubator for 24 h to recovery (R24 h). In the neuroprotection experiments, the compounds were added at the onset of recovery period. Control cultures in Dulbecco's medium containing glucose were kept in the normoxic incubator for the same period of time as the OGD, and then medium (Dulbecco's/Ham's F12, 1:1 [vol/vol], 5 mg/mL glucose, 2 mM L-glutamine, and 1 mM sodium pyruvate, and supplemented with 100 μg/mL transferrin, 100 μM putrescine, 20 nM progesterone, 30 nM sodium selenite and 5 μg/mL insulin). Here, 6-7 day old cultured neurons were used in the experiments, and contained 90% β-III-tubulin-positive mature neurons, as described previously.^55
# Exposure of cell cultures to oxygen-glucose deprivation and treatments. Primary neuronal cultures were exposed to […]. Control experiments included the same amounts of vehicle (final concentration<0.5% ethanol). Nitrone 2 was used as reference compound for neuroprotection. The experimental procedures were blindly performed, assigning a random order to each assayed nitrone. Nitrones were analyzed independently four-eight times with different batch of cultures and each experiment was run in quadruplicate.
# Cell viability assay. Cell viability was evaluated by quantification of living, metabolically active cells, as determined by a colorimetric assay using the photometric reduction of 3-(4,5-dimethylthiazol-2-yl)-2,5-diphenyl tetrazolium bromide (MTT) (Roche) to a blue formazan product. The assay of living, metabolically active cells was performed by incubating with 0.2 mg/mL MTT in the culture medium for 1.5 h in an incubator at 37° C. in a 6.5% CO2 atm. After the incubation period, cells were lysed with an equal volume of 10 mM HCl and 10% SDS overnight. Values were quantified by absorbance (test 595 nm, reference 690 nm). Decreased MTT activity denotes impairment of mitochondrial function and is considered to be an index of cell damage. Primary neuronal cultures were collected at times indicated for MTT determination.
# Neuroprotection of compounds was evaluated by a cell viability assay. The neuroprotective effect of the compounds 5-32 was evaluated on primary neuronal cultures from cerebral cortex subjected to oxygen-glucose deprivation (OGD) to induce experimental ischemia. Afterwards, cultured neurons were placed and kept in normoxic and normoglycemic conditions to recovery. […]
# [4] = Rattus norvegicus, R24 h = 0%, control = 100%
Compound,*OH (%) [1],ABTS*+ (%) [2],neuronal viability compared with R24 h (in words) [3],"viability at 100 µM [3, 4]","viability at 250 µM [3, 4]","viability at 500 µM ([3]; Rattus norvegicus, 500 μM, R24 h = 0%, control = 100%)","viability at 1 µM [3, 4]","viability at 10 µM [3, 4]","viability at 0.3 µM [3, 4]"
"CC(C)(C)/[N+]([O-])=C/c1ccc(S(=O)(=O)O)cc1S(=O)(=O)O [Compound 2, sodium (Z)-4-((tert-butyloxidoazanylidene)methyl)benzene-1,3-disulfonate, reference compound]",94%,no,only produced a significant neuroprotective effect at 250 μM,42.8 ± 2.31%,52.9 ± 2.52%,46.5 ± 1.1%,–,–,–
"COc1ccc2nc(Cl)c(C=O)cc2c1 [Compound 32, 2-chloro-6-methoxyquinoline-3-carbaldehyde, reference compound]",89%,5%,"nor carbaldehyde 32, the precursor of potent QN 23, showed neuroprotective activity",< 0%,–,–,< 0%,< 0%,–
"COc1ccc2nc(Cl)c(/C=[N+](\[O-])Cc3ccccc3)cc2c1 [Compound 24, (Z)—N-Benzyl-1-(2-chloro-6-methoxyquinolin-3-yl)methanimine oxide]",65%,no,–,38.9 ± 1.31%,–,–,31.3 ± 1.38%,29.7 ± 1.38%,< 0%
"CC(C)(C)/[N+]([O-])=C/c1cc2ccccc2nc1Cl [Compound 18, (Z)—N-t-Butyl-1-(2-chloroquinolin-3-yl)methanimine oxide]",97%,no,–,< 0%,–,–,9.76 ± 0.84%,29 ± 3.83%,–
"COc1ccc2nc(Cl)c(/C=[N+](/C)[O-])cc2c1 [Compound 22, (Z)-1-(2-Chloro-6-methoxyquinolin-3-yl)-N-methylmethanimine oxide]",100%,no,–,< 0%,< 0%,–,< 0%,< 0%,< 0%
"CC(C)(C)/[N+]([O-])=C/c1cc2ccccc2[nH]c1=O [Compound 19, (Z)—N-tert-Butyl-1-(2-oxo-1,2-dihydroquinolin-3-yl)methanimine oxide]",99%,6%,significantly increased neuronal viability,48.8 ± 2.29%,55 ± 1.89%,–,–,–,–
"COc1ccc2nc(Cl)c(/C=[N+](\[O-])C(C)(C)C)cc2c1 [Compound 23, (Z)—N-tert-Butyl-1-(2-chloro-6-methoxyquinolin-3-yl)methanimine oxide]",100%,7%,significantly increased neuronal viability,77.1 ± 2.24%,65.9 ± 2.87%,–,–,52 ± 1.75%,–

# Source: patent US12102631B2, “Quinolylnitrones for the treatment and prevention of a cerebral stroke or ischaemia” (ISQUAEMIA BIOTECH, S.L., priority 2018, dated 2024)
